In general, IC50 refers to the midpoint of a concentration-inhibition curve.

Among the data in patent US20090281077A1, “Cyclic sulfones useful as mitochondrial sodium-calcium exchangers” (priority 2006, published 2009) are IC50 values, retold here.

This assay deals with T1, mitochondrial sodium-calcium exchanger (mNCE) (Rattus norvegicus, UniProt Q6AXS0).
T1 construct: from tissue; host or cells: rat whole brain, isolated mitochondria
T1 sequence (Q6AXS0 27-585): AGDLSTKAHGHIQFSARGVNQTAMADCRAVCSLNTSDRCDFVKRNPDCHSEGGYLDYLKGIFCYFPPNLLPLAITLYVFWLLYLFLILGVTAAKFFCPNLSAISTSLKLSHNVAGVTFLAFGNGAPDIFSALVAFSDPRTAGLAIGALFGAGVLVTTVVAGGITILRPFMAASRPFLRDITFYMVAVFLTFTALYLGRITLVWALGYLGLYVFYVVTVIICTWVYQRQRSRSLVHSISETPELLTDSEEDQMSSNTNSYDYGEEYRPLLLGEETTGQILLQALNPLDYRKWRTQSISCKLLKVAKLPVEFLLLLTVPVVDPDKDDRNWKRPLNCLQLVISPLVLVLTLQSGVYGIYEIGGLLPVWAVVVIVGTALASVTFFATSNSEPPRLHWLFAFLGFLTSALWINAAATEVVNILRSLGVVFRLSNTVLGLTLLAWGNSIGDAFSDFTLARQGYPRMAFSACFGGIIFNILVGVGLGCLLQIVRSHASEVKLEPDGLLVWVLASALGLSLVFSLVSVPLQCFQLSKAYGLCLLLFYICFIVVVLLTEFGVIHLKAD
Briefly: Measurement of the Na-Ca exchanger of rat brain mitochondria (Na-induced Ca-release, Oregon Green fluorescence). The settings on record: isolated rat brain mitochondria; Ca-efflux rates induced by 20 mM NaCl; rt. The format is biochemical. As to the method: The method is adapted from the method of Rosenthal et al. [J. Cereb. Blood Flow Metab., 7, 752-758 (1987)].
MSH+: 225 mM mannitol, 75 mM sucrose, 5 mM Hepes, 0.5 mM EDTA, 1 mg/ml of BSA (essentially free fatty acid free); final pH=7.3.
MSH−: Equal to MSH+, but without EDTA.
Nagarse solution: 5 mg of nagarse (bacterial protease type XXIV from Sigma, St. Louis, USA, catalogue # P-8038) dissolved in 1 ml of MSH+.
Digitonin solution: 10% W/V in DMSO.
The entire procedure is performed on ice. Remove the whole brain from the rat (1 brain=2 g). Add the tissue to cold MSH+in a beaker on ice. Cut the tissue into small pieces using scissors and wash the tissue 2 times with MSH+. Transfer the tissue into a 20 ml Dounce homogenizer and set level to about 9 ml with MSH+. Add 1 ml of freshly made Nagarse solution. Homogenize (6 strokes with a loose and 6 strokes with a tight pestle). […] The protein concentration is determined using the Pierce BCA assay (Pierce, Rockford Ill., USA). […]
In a typical experiment 96-well microtiter plates (flat bottom) are used. […] Distribute in a 96-well plate 5 μl/well of 2 μM ruthenium red [in 120 mM KCl and 20 mM Tris (pH=7.4)] and the compounds (in DMSO) to be analyzed (1 μl/well). […] Measure the Ca-release induced by the addition of Na by monitoring the Oregon Green fluorescence (485 nm and 538 nm monochromators for excitation and emission, respectively). […]

Take `O=C1CS(=O)(=O)C(c2ccccc2Cl)c2cc(Cl)ccc2N1` (stereo not shown) [Example 1, 2-Chloro-9-(2-chlorophenyl)-8,8-dioxo-5,7,8,9-tetrahydro-8lambda*6*-thia-5-aza-benzocyclohepten-6-one]: the IC50 came out at 3.8 µM.
